Experimental data from ChEMBL document CHEMBL4602617, “Discovery and optimization of heteroaryl piperazines as potent and selective PI3Kδ inhibitors” (Bioorg Med Chem Lett, 2020).

Experiments:
[1] = biological target: Alpha-2B adrenergic receptor (Homo sapiens) (UniProt P18089); experiment: Displacement of [3H]rauwolscine from full-length recombinant human alpha2B receptor expressed in CHOK1 cells at 10 uM measured after 60 mins by scintillation counting method relative to control; format: cell-based; conditions: CHO-K1
[2] = biological target: Serine/threonine-protein kinase PAK 4 (Homo sapiens, UniProt O96013); experiment: Inhibition of recombinant human GST-tagged PAK4 catalytic domain (295 to 591 residues) expressed in baculovirus expression system using serine/threonine-20 peptide as substrate incubated for 60 mins in presence of ATP by Z'-LYTE assay
Sequence of Serine/threonine-protein kinase PAK 4 (O96013 whole entry, the tested form may be a part): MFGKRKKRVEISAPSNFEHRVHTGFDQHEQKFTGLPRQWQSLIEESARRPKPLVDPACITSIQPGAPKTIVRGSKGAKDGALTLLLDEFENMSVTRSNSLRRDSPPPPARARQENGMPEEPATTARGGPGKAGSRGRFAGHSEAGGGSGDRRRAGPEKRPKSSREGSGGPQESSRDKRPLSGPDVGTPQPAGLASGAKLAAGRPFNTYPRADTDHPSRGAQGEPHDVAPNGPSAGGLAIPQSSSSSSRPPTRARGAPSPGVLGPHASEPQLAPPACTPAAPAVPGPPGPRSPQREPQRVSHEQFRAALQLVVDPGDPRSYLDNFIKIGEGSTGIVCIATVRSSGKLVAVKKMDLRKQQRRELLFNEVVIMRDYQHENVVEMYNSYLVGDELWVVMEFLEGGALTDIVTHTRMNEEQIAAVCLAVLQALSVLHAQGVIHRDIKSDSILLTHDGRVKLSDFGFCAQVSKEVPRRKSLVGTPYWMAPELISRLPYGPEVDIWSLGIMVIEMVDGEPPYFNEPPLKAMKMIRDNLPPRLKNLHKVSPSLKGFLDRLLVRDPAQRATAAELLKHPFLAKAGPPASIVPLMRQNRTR

[3] = biological target: Calcium/calmodulin-dependent protein kinase type 1D (Homo sapiens, UniProt Q8IU85); experiment: Inhibition of recombinant full length human His-tagged CAMK1delta expressed in baculovirus expression system using serine/threonine-25 peptide as substrate incubated for 60 mins in presence of ATP by Z'-LYTE assay
[4] = biological target: T1, Phosphatidylinositol 4,5-bisphosphate 3-kinase catalytic subunit delta isoform (Homo sapiens, UniProt O00329); experiment: Inhibition of PI3K delta in human whole blood assessed as inhibition of anti-IgE-stimulated CysLt release in basophils preincubated for 30 mins followed by anti-IgE stimulation and measured after 20 mins; format: tissue-based
T1 sequence (O00329 whole entry): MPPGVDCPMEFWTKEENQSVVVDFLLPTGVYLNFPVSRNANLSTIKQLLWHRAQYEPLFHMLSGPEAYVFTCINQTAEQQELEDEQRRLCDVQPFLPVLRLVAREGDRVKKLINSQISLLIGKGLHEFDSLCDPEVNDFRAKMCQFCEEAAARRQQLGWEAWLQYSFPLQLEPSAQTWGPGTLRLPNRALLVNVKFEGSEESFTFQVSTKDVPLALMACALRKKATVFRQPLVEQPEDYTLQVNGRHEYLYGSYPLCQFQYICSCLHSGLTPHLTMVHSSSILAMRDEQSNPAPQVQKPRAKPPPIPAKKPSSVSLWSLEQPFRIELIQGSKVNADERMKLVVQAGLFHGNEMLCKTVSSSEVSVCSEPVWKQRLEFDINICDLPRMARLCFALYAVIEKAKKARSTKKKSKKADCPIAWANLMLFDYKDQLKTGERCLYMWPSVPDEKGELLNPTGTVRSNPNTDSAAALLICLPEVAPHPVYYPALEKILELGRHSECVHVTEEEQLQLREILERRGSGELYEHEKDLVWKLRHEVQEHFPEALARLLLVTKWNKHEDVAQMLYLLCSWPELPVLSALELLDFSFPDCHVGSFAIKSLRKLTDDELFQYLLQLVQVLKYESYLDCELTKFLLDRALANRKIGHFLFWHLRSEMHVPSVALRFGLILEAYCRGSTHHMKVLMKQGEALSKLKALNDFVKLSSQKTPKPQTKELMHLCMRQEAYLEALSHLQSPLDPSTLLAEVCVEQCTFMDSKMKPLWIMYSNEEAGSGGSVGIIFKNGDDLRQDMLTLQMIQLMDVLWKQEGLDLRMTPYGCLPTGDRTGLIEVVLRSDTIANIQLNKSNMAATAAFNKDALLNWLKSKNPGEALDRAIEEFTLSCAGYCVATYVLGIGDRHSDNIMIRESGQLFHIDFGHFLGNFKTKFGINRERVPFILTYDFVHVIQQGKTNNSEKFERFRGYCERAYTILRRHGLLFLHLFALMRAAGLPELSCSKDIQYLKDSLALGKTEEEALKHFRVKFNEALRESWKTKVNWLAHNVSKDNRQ

[5] = biological target: G protein-coupled receptor kinase 5 (Homo sapiens, UniProt P34947); experiment: Inhibition of recombinant full length human GST-tagged GRK5 expressed in baculovirus expression system using serine/threonine-16 peptide as substrate incubated for 60 mins in presence of ATP by Z'-LYTE assay
Sequence of G protein-coupled receptor kinase 5 (P34947 whole entry, the tested form may be a part): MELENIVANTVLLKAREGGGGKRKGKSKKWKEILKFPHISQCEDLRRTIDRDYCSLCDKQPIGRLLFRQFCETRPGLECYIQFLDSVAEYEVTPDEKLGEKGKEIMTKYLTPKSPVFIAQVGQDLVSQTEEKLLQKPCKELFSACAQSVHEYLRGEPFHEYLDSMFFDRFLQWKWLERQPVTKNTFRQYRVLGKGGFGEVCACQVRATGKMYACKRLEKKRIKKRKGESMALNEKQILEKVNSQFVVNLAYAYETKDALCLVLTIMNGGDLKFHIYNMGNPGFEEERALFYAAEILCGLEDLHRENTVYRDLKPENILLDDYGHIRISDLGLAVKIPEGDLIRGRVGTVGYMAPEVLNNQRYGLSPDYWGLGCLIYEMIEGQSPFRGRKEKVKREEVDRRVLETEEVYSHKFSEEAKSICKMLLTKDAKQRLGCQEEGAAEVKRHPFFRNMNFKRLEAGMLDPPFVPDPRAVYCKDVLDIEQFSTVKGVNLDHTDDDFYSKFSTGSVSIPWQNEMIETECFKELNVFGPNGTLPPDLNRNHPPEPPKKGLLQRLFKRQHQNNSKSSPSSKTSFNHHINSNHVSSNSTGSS

[6] = biological target: Homeodomain-interacting protein kinase 3 (Homo sapiens, UniProt Q9H422); experiment: Inhibition of recombinant human His-tagged HIPK3 catalytic domain expressed in baculovirus expression system using serine/threonine-9 peptide as substrate incubated for 60 mins in presence of ATP by Z'-LYTE assay
Sequence of Homeodomain-interacting protein kinase 3 (Q9H422 whole entry, the tested form may be a part): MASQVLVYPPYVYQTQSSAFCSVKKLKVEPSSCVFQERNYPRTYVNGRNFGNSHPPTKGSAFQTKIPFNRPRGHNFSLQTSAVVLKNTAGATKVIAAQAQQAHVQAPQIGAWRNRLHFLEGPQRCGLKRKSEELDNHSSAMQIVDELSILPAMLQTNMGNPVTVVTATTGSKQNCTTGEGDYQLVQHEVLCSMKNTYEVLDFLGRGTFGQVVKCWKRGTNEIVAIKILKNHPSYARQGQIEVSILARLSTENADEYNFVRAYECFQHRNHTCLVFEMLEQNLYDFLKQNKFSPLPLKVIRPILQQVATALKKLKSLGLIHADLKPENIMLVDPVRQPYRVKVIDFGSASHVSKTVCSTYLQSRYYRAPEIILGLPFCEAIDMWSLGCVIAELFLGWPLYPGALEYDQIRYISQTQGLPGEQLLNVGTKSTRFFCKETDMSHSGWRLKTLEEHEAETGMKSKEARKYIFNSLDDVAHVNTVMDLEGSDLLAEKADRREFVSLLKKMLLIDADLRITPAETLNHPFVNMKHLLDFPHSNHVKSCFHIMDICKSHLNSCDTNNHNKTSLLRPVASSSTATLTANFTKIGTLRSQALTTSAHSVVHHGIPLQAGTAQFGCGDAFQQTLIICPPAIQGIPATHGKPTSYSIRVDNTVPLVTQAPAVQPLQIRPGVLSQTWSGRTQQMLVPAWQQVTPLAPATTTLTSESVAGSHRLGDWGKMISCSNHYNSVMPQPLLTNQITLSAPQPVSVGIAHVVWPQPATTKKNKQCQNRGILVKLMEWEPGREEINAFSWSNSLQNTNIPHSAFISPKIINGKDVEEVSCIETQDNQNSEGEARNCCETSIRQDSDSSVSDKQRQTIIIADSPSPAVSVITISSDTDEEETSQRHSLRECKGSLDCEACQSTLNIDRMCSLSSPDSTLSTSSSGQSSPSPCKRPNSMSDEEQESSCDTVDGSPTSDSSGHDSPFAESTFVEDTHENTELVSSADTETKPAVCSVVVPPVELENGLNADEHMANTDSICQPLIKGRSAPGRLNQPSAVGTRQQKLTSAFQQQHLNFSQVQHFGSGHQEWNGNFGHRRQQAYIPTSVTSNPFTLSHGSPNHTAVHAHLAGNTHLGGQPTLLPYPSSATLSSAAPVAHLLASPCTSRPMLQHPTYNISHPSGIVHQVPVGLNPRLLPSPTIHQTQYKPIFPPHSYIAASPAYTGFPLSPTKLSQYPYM

[7] = biological target: Proto-oncogene tyrosine-protein kinase ROS (Homo sapiens, UniProt P08922); experiment: Inhibition of recombinant human GST-tagged ROS1 cytoplasmic domain expressed in baculovirus expression system using tyrosine-2 peptide as substrate incubated for 60 mins in presence of ATP by Z'-LYTE assay
[8] = biological target: Tyrosine-protein kinase ABL1 (Homo sapiens, UniProt P00519, G250E); experiment: Inhibition of recombinant full length human His-tagged ABL1 G250E mutant cytoplasmic domain expressed in baculovirus expression system using tyrosine-2 peptide as substrate incubated for 60 mins in presence of ATP by Z'-LYTE assay
[9] = biological target: Calcium/calmodulin-dependent protein kinase type 1 (Homo sapiens, UniProt Q14012); experiment: Inhibition of full length human CAMK1 alpha expressed in baculovirus expression system using ZIPtide as substrate after 1 hr in presence of ATP by TR-FRET based assay
Sequence of Calcium/calmodulin-dependent protein kinase type 1 (Q14012 whole entry): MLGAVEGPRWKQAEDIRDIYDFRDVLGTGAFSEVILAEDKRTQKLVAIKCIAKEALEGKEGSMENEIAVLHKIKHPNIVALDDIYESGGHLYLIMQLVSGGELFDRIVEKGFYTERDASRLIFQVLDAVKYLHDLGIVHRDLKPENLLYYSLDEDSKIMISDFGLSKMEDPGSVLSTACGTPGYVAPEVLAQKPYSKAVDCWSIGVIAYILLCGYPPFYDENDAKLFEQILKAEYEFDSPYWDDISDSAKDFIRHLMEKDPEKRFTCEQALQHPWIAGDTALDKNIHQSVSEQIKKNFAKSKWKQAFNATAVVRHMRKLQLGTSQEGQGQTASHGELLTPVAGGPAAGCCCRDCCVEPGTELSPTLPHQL

[10] = biological target: Alpha-2C adrenergic receptor (Homo sapiens) (UniProt P18825); experiment: Displacement of [3H]rauwolscine from full-length recombinant human alpha2C receptor expressed in CHOK1 cells at 10 uM measured after 60 mins by scintillation counting method relative to control; format: cell-based; conditions: CHO-K1
Sequence of Alpha-2C adrenergic receptor (Homo sapiens) (P18825 whole entry): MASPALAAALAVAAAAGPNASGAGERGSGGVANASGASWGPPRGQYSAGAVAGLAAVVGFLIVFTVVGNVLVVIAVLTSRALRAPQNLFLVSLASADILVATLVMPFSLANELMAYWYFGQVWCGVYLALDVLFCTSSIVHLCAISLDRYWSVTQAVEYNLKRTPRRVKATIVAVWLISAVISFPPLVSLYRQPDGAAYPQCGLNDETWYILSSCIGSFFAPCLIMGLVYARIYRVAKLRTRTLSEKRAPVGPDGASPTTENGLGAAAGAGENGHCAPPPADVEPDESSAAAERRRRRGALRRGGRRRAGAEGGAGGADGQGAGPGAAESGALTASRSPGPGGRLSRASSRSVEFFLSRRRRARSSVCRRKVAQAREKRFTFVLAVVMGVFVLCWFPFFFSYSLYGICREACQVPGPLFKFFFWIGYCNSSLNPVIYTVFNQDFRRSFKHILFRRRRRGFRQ

[11] = biological target: Serine/threonine-protein kinase Nek6 (Homo sapiens, UniProt Q9HC98); experiment: Inhibition of recombinant full length human GST-tagged NEK6 expressed in insect expression system using serine/threonine-22 peptide as substrate incubated for 60 mins in presence of ATP by Z'-LYTE assay
Sequence of Serine/threonine-protein kinase Nek6 (Q9HC98 whole entry, the tested form may be a part): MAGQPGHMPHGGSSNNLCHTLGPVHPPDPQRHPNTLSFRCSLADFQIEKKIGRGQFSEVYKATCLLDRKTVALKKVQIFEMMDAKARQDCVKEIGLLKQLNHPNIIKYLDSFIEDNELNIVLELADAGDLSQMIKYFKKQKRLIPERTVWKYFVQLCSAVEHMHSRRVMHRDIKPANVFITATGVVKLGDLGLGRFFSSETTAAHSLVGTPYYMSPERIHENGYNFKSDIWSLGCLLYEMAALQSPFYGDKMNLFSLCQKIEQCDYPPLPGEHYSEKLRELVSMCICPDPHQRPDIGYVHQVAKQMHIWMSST

[12] = biological target: Non-receptor tyrosine-protein kinase TYK2 (Homo sapiens, UniProt P29597); experiment: Inhibition of recombinant human GST-tagged TYK2 catalytic domain (833 to 1187 residues) expressed in baculovirus expression system using tyrosine-3 peptide as substrate incubated for 60 mins in presence of ATP by Z'-LYTE assay
[13] = biological target: Epidermal growth factor receptor (Homo sapiens, UniProt P00533, L858R); experiment: Inhibition of human recombinant GST-tagged EGFR L858R mutant expressed in baculovirus expression system using tyrosine 4 peptide as substrate after 60 mins in presence of ATP FRET based Z'-LYTE assay
[14] = biological target: Macrophage colony-stimulating factor 1 receptor (Homo sapiens, UniProt P07333); experiment: Inhibition of recombinant human His-tagged CSF1R catalytic domain (538 to 910 residues) expressed in baculovirus expression system using tyrosine-1 peptide as substrate incubated for 60 mins in presence of ATP by Z'-LYTE assay
[15] = biological target: Insulin-like growth factor 1 receptor (Homo sapiens, UniProt P08069); experiment: Inhibition of recombinant human His-tagged IGF1R expressed in baculovirus expression system using tyrosine 1 peptide as substrate incubated for 60 mins in presence of ATP by Z'-LYTE assay
Sequence of Insulin-like growth factor 1 receptor (P08069 31-736 limits assumed): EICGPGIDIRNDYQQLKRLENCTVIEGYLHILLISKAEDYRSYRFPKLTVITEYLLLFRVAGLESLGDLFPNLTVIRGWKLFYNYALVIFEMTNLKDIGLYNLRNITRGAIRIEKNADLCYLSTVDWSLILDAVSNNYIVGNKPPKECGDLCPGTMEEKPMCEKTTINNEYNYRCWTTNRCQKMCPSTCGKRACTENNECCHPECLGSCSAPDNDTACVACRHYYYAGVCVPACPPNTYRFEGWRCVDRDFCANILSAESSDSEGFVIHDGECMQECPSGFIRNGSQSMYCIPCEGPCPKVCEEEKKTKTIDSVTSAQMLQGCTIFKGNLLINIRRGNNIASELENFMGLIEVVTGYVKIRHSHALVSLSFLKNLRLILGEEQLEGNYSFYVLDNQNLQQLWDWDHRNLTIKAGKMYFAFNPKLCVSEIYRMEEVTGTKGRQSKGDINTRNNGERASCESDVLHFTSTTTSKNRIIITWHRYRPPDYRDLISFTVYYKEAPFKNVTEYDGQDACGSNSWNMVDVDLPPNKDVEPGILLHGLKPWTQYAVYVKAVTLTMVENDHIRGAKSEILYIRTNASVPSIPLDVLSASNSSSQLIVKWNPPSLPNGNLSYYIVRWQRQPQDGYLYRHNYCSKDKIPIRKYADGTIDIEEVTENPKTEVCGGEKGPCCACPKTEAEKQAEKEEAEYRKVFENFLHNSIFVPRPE
Sequence of Insulin-like growth factor 1 receptor (P08069 741-1367 limits assumed): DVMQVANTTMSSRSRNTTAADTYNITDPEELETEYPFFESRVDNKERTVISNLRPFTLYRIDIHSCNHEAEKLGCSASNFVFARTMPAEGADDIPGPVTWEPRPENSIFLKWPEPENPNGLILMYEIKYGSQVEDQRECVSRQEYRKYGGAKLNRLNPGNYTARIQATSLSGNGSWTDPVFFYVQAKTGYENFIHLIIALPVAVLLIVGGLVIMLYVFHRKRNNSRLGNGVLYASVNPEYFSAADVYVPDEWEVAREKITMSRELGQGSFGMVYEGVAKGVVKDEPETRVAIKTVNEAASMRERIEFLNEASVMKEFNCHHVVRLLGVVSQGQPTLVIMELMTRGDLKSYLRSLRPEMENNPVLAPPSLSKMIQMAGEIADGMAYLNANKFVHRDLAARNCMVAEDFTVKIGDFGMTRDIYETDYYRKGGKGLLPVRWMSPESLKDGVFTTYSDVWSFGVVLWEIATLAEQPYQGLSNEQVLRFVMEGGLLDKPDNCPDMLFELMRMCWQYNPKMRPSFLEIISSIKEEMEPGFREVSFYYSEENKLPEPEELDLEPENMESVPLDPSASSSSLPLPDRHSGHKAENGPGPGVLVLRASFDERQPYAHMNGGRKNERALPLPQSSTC

[16] = biological target: Cyclin-dependent kinase 5/CDK5 activator 1 (Homo sapiens, UniProt Q00535); experiment: Inhibition of recombinant full length human GST/His-tagged CDK5/p25 expressed in baculovirus expression system using serine/threonine-12 peptide as substrate incubated for 60 mins in presence of ATP by Z'-LYTE assay

C[C@@H]1C[C@H]1C(=O)N1CCN(c2cnc(C#N)c(-c3cnn(C)c3)n2)C[C@H]1C
inhibition [1]: 11%
IC50 [2]: > 100 µM
IC50 [3]: > 100 µM
IC50 [4]: 0.065 µM
IC50 [5]: > 100 µM
IC50 [6]: > 100 µM
IC50 [7]: > 100 µM
IC50 [8]: > 100 µM
IC50 [9]: > 100 µM
inhibition [10]: 5%
IC50 [11]: > 100 µM
IC50 [12]: > 100 µM
IC50 [13]: > 100 µM
IC50 [14]: > 100 µM
IC50 [15]: > 100 µM
IC50 [16]: > 100 µM
